Columns and labels:
D(3) dopamine receptor = D(3) dopamine receptor (Rattus norvegicus, UniProt P19020); experiment: biochemical
D(2) dopamine receptor = D(2) dopamine receptor (Rattus norvegicus, UniProt P61169); experiment: Agonist activity at Rattus norvegicus (rat) dopamine D2 receptor transfected in african green monkey COS7 cells assessed as inhibition of forskolin-stimulated adenylyl cyclase activity after 10 min; format: functional, cell-based, COS-7
[1] = molecular target: Dopamine receptor D2 and D3 (Rattus norvegicus, UniProt P19020+P61169); experiment: Agonist activity at Rattus norvegicus (rat) dopamine D2/D3 receptor transfected in african green monkey COS7 cells assessed as inhibition of forskolin-stimulated adenylyl cyclase activity after 10 min; format: functional, cell-based; details: cos-7

Chain of D(3) dopamine receptor (P19020 whole entry): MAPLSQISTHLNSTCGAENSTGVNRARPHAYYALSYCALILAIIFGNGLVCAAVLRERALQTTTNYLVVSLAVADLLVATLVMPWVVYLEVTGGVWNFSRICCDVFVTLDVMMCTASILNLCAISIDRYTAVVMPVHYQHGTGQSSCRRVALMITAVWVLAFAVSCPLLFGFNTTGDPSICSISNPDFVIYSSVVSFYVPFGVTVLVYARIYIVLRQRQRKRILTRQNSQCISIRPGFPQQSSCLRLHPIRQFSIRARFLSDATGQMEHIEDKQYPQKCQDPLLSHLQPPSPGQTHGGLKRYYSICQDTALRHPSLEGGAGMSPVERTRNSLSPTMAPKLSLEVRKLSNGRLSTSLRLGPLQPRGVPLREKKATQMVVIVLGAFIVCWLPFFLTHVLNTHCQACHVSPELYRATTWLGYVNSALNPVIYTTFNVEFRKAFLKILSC
Chain of D(2) dopamine receptor (P61169 whole entry): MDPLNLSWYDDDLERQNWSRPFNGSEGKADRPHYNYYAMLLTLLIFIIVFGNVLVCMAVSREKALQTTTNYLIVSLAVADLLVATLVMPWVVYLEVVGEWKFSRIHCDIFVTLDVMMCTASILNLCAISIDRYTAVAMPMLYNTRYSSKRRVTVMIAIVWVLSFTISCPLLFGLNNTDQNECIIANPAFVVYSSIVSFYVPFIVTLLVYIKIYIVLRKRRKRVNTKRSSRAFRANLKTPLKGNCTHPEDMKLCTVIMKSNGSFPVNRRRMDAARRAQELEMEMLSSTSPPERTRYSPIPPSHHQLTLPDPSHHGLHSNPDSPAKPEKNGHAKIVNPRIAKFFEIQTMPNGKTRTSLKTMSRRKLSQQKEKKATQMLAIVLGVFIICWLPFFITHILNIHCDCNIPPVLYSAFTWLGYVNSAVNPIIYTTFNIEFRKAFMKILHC

Compound	IC50 (D(3) dopamine receptor)	EC50 (D(2) dopamine receptor)	EC50 [1]	Ki (D(3) dopamine receptor)
CCCN1CCO[C@@H]2c3cc(C(N)=O)ccc3CC[C@H]21 (relative stereo)	4.13 nM	49.5 nM	1.5 nM	–
CCCN[C@H]1CCc2nc(N)sc2C1 [PRAMIPEXOLE]	7.8 nM	–	–	–
CCCN(CCC)CCc1cccc2c1CC(=O)N2 [ROPINIROLE]	–	75.5 nM	–	–
N#Cc1ccc2c(c1)[C@H]1CN(CCCCNC(=O)c3ccc(-c4ccccc4)cc3)C[C@@H]1CO2	–	–	–	2.42 nM

Source: ChEMBL document CHEMBL3046632 (Med Chem Res, 2004)
